For data set [1] the following is noted: cited from earlier work.
A further data set has as its system Streptococcus sobrinus. The experiment in a line: Antibacterial activity by optical density of cultures with serial dilution of the compounds. Format: cell-based. The following applies: pH 5.9, 18 hours. As to the method:
(§1) The antibacterial activities of three complexes against six oral bacteria at pH 5.9 were tested by measuring the optical density (OD, at 600 nm) of the cultures in […] of different bacteria with the presence of serial dilution of the compounds (10^−2M-7.81×10^−5M) after culture at 5% CO2 under 37° C. for 18 hours. The midpoint concentration (IC 50) was determined at the concentration that corresponds to 50% of maximum OD. The minimum inhibition concentration (MIC) was determined at the concentration that corresponds to 10% or less of OD of the control (without any gallium compound).

The test system of the next data set is Lactobacillus casei. Described as above. The following applies: pH 5.9, 18 hours. The class given is cell-based. As to the method:
as §1

For data set [2], the system named is Streptococcus pneuomoniae. The description is as above. The class given is cell-based. The following applies: pH 5.9, 18 hours. The procedure: as §1
The test system of a further data set is Pseudomonas aeruginosa. Described as above. Format: cell-based. The following applies: pH 5.9, 18 hours. As to the method: as §1
Another data set concerns Streptococcus mutans. Described as above. The class given is cell-based. The following applies: pH 5.9, 18 hours. The procedure: as §1
For the next data set, the system named is Actinomyces naeslundii. The data set is described as above. Format: cell-based. The following applies: pH 5.9, 18 hours. The procedure: as §1
Data set [3] can be described thus: Stability of aqueous gallium complex solutions with pH. The following applies: solution of 2×10^−3 M. Format: physicochemical.
The nature of data set [4]: Gallium release from composite discs, spectrophotometric method. The following applies: 15% chelate in the monomer; deionized water pH=7.0; 4 days (FIG. 13).
The mark [5] stands for this setting: 37° C., 5% CO2, OD at 600 nm, read-out: Midpoint concentration (IC50).
The mark [6] stands for this setting: 10% or less of OD of the control.

“Also recorded” adds a separate entry of the source.

In the case of `[Ga+3].[OH-].[OH-].[OH-]` [Ga(OH)3], the “solubility in water (words)” value in data set [1] is recorded as “sparingly soluble; also recorded: low solubility in water”. Moreover, in [1] (in water), the “Ksp=[Ga^3+][OH^−]^3” value is recorded as 3.28×10^−36.

For `[F][Ga-2]([F])([F])([F])[F].[Na+].[Na+]` [Na2GaF5], the IC50 in the data set on Streptococcus sobrinus (setting [5]) is 1250 µM; with Lactobacillus casei (setting [5]), more than 5000 µM; in data set [2] (setting [5]), 1880 µM; with Pseudomonas aeruginosa (setting [5]), more than 1880 µM; with Streptococcus mutans (setting [5]), 1250 µM; in the data set on Actinomyces naeslundii (setting [5]), 1880 µM. In addition, the “Minimum Inhibition Concentration (MIC)” value is 5000 µM in the data set on Streptococcus sobrinus (setting [6]); >10^−2M with Lactobacillus casei (setting [6]); 5000 µM in [2] (setting [6]); 50 µM in the data set on Pseudomonas aeruginosa (setting [6]); 2500 µM in the data set with Streptococcus mutans (setting [6]); 2500 µM in the data set with Actinomyces naeslundii (setting [6]). Further, the “pH up to which the solution is stable” value in data set [3] is recorded as not above 5.9.

For the compound `[Ga+3].[Ga+3].[O-2].[O-2].[O-2]` [Ga2O3, gallium oxide], the “solubility in water (words)” value in data set [1] is “insoluble in water”.

Take `[F][Ga]([F])[F]` [GaF3, gallium trifluoride]: in [1], the solubility in water is 15.8 µM and the “solubility in water (words)” value is reported as “sparingly soluble”.

For the compound `C=C(C)C(=O)OCCOc1ccc(C(C)(CCC(=O)NCCCCC(C(=O)[O-])N(CC(=O)[O-])CC(=O)O)c2ccc(OCCOC(=O)C(=C)C)cc2)cc1.F.[F-].[Ga+3]` (stereo not shown) [ternary gallium fluoride chelate, monogallium(III) mono(2,2′-((5-(4,4-bis(4-(2-(methacryloyloxy)ethoxy)phenyl)pentanamido)-1-carboxylatopentyl)azanediyl)diacetate) monofluoride hydrofluoride], the “amount of gallium ion released compared with those without the chelate” value in data set [4] is reported as “nearly double”.

The values are drawn from patent publication US11617369B2, “Antimicrobial gallium compounds and methods” (The Board of Supervisors of Louisiana State University and …, priority 2018, dated 2023).
